In general, IC50 refers to the concentration that gives 50% inhibition.

These results are taken from patent publication US11834453B2, “Substituted pyrimido[5,4-d]pyrimidines as HER2 inhibitors” (Array BioPharma Inc., priority 2020, dated 2023).

Counter-ions that a name gives are not always drawn. Like-named read-outs stand apart in the source and are kept apart here.

Test [1] deals with ErbB2 insYVMA (HER2-YVMA, SEQ ID NO: 2) (Homo sapiens, UniProt P04626, INS775YVMA/P1170A). Put plainly: biochemical. Particulars: ErbB2 insYVMA enzyme assay.
For the next test, the target named is ErbB2 WT (Homo sapiens (Human), UniProt P04626). Put plainly: ErbB enzyme assay (CisBio HTRF KinEASE-TK), Assay 2. In kind it is biochemical. An outline of the steps:
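Readout is HTRF KinEASE-TK, using Sa-XL665 and cryptate antibody for 1 h at 22 °C, as percent of control between DMSO-only (100) and pre-quenched (0) reactions. The kinase reaction runs 30 min at 22 °C with 1 mM ATP and 250 nM biotinylated TK substrate, in HEPES pH 7.4 with MgCl2 and 2% DMSO.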
(In TR-FRET formats the signal depends on donor and acceptor labels being close together.)

The target of the next test is EGFR (Homo sapiens (Human), UniProt P00533). Put plainly: ErbB enzyme assay (CisBio HTRF KinEASE-TK), Assay 3. In kind it is biochemical. The gist of the method: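 HTRF dual-wavelength read after 1 h detection; POC normalised to DMSO (100) and pre-quenched (0) controls, IC50 where 4-parameter curve crosses 50 POC. Reaction: 250 nM TK-substrate biotin, 1 mM ATP, pH 7.4 HEPES buffer with MgCl2, 30 min, 22 °C.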

Test [2] concerns the target ErbB2 with Exon 20 YVMA insertion (HER2-YVMA) (Homo sapiens (Human), UniProt P04626, INS775YVMA). Put plainly: Cellular phosphorylation assay, constitutive ErbB2 phosphorylation (Y1196) in engineered NIH 3T3 cells, Assay 4. In kind it is cell-based. An outline of the steps: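 In-cell Western in NIH 3T3 cells carrying ErbB2 exon 20 YVMA insertion, with no ligand stimulation. One hour compound exposure at 37 °C before fixation and anti-pY1196 plus GAPDH staining with dual-wavelength fluorescence. IC50 derived after GAPDH normalization.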

In a further test the target is EGFR wild type (EGFR WT) (Homo sapiens (Human), UniProt P00533). Put plainly: Cellular phosphorylation assay, EGF-stimulated EGFR phosphorylation in engineered NIH 3T3 cells, Phospho-EGFR DuoSet IC ELISA, Assay 5. In kind it is cell-based. The gist of the method: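 Phospho-EGFR ELISA on lysates of engineered NIH 3T3 EGFR WT cells, IC50 derived from concentration curves. Cells plated at 20,000/well overnight, given compound dilutions 1 h at 37 °C, then rEGF 100 ng/ml for a further 10 min before lysis.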
On the technique in general: An ELISA detects its analyte on a solid surface through an enzyme-linked reagent.

Sequence of ErbB2 insYVMA (HER2-YVMA, SEQ ID NO: 2) (P04626 with tags, fused parts or gaps INS775YVMA/P1170A limits assumed): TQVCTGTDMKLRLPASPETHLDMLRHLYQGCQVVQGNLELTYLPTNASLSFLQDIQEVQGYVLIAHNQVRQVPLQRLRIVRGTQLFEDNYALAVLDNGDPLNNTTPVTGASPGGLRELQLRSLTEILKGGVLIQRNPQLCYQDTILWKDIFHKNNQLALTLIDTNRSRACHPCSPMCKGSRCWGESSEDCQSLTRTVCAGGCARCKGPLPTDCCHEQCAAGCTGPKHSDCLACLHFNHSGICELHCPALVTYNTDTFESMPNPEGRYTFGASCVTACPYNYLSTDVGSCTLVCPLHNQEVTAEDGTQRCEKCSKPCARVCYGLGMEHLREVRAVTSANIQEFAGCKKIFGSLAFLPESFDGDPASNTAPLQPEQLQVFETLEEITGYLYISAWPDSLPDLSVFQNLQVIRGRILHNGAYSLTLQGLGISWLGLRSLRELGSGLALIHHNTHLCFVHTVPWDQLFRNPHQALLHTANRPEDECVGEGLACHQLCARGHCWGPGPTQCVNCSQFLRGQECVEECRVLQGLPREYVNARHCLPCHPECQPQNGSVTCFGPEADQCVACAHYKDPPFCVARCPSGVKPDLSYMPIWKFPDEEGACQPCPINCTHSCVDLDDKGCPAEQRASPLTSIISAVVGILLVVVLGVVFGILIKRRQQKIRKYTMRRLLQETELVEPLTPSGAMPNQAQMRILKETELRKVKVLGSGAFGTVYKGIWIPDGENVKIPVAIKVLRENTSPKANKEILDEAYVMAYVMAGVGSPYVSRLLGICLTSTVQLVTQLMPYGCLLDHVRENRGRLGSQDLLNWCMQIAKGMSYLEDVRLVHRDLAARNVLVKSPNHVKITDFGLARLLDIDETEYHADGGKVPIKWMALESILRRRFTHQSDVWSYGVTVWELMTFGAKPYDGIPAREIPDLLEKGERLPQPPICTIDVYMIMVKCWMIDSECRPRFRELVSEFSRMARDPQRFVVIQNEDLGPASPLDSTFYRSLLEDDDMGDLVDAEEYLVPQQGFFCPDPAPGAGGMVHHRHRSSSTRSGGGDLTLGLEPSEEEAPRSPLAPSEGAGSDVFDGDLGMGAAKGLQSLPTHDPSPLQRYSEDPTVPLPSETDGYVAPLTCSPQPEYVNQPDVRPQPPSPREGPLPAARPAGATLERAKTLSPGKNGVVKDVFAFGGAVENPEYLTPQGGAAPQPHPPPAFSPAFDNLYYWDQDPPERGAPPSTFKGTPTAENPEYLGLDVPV
Sequence of EGFR (P00533 25-1210): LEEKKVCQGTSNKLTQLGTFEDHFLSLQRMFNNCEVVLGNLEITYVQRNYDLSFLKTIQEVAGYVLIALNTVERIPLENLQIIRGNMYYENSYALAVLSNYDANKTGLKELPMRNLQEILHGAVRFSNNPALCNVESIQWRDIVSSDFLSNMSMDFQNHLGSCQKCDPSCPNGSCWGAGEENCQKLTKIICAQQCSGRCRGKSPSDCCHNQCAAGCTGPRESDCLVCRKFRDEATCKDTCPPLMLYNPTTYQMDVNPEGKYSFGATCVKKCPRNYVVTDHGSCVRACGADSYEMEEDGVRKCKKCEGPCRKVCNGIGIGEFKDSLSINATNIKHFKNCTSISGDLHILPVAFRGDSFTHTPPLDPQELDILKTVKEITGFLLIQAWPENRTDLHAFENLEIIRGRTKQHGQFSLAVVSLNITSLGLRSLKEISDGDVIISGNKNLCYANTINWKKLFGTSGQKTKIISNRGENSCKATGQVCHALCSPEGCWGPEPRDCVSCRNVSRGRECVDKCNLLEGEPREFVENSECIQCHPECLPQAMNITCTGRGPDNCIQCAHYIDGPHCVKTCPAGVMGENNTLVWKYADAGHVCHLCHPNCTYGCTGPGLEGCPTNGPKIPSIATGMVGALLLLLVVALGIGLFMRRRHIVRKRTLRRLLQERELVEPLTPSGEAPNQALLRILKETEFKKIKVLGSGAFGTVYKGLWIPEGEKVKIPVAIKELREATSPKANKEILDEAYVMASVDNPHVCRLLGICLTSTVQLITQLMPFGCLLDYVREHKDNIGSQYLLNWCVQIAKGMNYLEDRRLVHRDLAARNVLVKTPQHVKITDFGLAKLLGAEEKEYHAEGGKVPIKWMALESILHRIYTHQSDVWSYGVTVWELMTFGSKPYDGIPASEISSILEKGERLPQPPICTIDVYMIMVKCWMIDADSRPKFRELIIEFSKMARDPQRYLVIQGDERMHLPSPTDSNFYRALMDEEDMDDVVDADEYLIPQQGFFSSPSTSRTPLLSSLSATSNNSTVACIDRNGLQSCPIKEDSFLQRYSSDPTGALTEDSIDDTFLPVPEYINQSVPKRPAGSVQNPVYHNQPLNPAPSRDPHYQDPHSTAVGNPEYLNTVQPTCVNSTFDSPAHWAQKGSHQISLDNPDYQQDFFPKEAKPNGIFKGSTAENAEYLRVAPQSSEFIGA
Sequence of EGFR wild type (EGFR WT) (P00533 25-1210): as above
Sequence of ErbB2 with Exon 20 YVMA insertion (HER2-YVMA) (P04626 other isoform, or with tags, fused parts or gaps ins YVMA behind 775): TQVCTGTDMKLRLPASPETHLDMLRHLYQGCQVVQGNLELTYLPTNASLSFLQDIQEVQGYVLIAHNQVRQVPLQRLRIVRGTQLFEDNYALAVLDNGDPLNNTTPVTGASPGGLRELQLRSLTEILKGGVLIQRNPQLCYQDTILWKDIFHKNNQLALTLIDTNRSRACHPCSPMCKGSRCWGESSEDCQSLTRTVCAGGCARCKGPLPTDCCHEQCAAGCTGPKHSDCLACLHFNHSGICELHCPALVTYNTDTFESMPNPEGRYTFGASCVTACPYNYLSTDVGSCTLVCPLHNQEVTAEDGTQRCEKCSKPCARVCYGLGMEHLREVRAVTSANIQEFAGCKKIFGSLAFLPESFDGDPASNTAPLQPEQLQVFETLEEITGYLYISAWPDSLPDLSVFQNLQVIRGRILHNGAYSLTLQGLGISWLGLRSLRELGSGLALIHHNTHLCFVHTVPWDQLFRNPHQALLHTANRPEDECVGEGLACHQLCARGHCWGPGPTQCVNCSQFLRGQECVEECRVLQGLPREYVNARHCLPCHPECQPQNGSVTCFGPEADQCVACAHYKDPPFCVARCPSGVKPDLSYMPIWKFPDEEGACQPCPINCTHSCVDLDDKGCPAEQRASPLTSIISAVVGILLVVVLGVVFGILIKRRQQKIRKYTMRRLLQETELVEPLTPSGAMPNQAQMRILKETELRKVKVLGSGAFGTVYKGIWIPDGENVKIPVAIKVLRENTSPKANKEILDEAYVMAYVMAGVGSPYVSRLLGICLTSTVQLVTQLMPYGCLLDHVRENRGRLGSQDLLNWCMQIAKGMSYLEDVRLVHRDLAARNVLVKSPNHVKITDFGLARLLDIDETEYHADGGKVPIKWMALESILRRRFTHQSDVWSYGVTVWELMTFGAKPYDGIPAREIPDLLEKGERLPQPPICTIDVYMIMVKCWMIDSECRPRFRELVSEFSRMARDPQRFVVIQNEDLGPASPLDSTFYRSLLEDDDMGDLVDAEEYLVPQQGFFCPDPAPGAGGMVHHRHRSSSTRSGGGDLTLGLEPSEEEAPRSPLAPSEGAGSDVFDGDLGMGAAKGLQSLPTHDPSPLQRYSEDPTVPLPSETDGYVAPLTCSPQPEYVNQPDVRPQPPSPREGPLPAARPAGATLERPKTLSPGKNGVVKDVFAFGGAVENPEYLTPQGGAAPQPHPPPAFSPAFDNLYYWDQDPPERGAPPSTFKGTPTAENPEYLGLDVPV

Take `Cc1cc(Nc2ncnc3cnc(N4CC(C)CS4(=O)=O)nc23)ccc1Oc1ccc2c(c1)ncn2C` (stereo not drawn) [Example 140, 4-methyl-2-(8-((3-methyl-4-((1-methyl-1H-benzo[d]imidazol-5-yl)oxy)phenyl)amino)pyrimido[5,4-d]pyrimidin-2-yl)isothiazolidine 1,1-dioxide]: the IC50 in test [1] (read-out: Assay 1 IC50) was 21.3 nM; at ErbB2 WT it was 20.3 nM; against EGFR, 6360 nM; in test [2], 8.1 nM; against EGFR wild type (EGFR WT) it was not below 5000 nM.
For the compound `CON1CCN(c2ncc3ncnc(Nc4ccc(Oc5ccc6c(c5)ncn6C)c(C)c4F)c3n2)CC1` [Example 142, N-(2-fluoro-3-methyl-4-((1-methyl-1H-benzo[d]imidazol-5-yl)oxy)phenyl)-6-(4-methoxypiperazin-1-yl)pyrimido[5,4-d]pyrimidin-4-amine 2,2,2-trifluoroacetate], the IC50 is 24.2 nM in test [1] (Assay 1 IC50 (nM)); 50.7 nM on ErbB2 WT; not below 10000 nM on EGFR; 72.7 nM in test [2]; not below 5000 nM at EGFR wild type (EGFR WT).
For `CN1CCN(c2ncc3ncnc(Nc4ccc(Oc5ccc6c(c5)ncn6C)c(Cl)c4)c3n2)CC1` [Example 143, N-(3-chloro-4-((1-methyl-1H-benzo[d]imidazol-5-yl)oxy)phenyl)-6-(4-methylpiperazin-1-yl)pyrimido[5,4-d]pyrimidin-4-amine 2,2,2-trifluoroacetate], the IC50 in test [1] (Assay 1 IC50 (nM)) is 35.1 nM; at ErbB2 WT, 50.7 nM; at EGFR, 7410 nM; in test [2], 28.2 nM; against EGFR wild type (EGFR WT), not below 5000 nM.
Regarding `C[C@@H]1COCCN1c1ncc2ncnc(Nc3ccc(Oc4ccc5c(c4)ncn5C)c(Cl)c3)c2n1` [Example 144, (R)—N-(3-chloro-4-((1-methyl-1H-benzo[d]imidazol-5-yl)oxy)phenyl)-6-(3-methylmorpholino)pyrimido[5,4-d]pyrimidin-4-amine], the IC50 in test [1] (read-out: Assay 1 IC50) was 59.5 nM; at ErbB2 WT, 78.2 nM; against EGFR it was 6910 nM; in test [2], 38.1 nM; on EGFR wild type (EGFR WT), not below 5000 nM.
For the compound `Cn1cnc2cc(Oc3ccc(Nc4ncnc5cnc(N6CC[C@H](C#N)C6)nc45)cc3Cl)ccc21` [Example 152, (S)-1-(8-((3-chloro-4-((1-methyl-1H-benzo[d]imidazol-5-yl)oxy)phenyl)amino)pyrimido[5,4-d]pyrimidin-2-yl)pyrrolidine-3-carbonitrile 2,2,2-trifluoroacetate], the IC50 was 36.7 nM in test [1] (Assay 1 IC50 (nM)); 78.7 nM at ErbB2 WT; not below 10000 nM at EGFR; 31.9 nM in test [2]; not below 5000 nM against EGFR wild type (EGFR WT).
With `Cc1cc(Nc2ncnc3cnc(N4CCCO4)nc23)ccc1Oc1cc(F)c2c(c1)ncn2C` [Example 155, N-(4-((7-fluoro-1-methyl-1H-benzo[d]imidazol-5-yl)oxy)-3-methylphenyl)-6-(isoxazolidin-2-yl)pyrimido[5,4-d]pyrimidin-4-amine], the IC50 was 22.5 nM in test [1] (read-out: Assay 1 IC50); 52.9 nM against ErbB2 WT; 4280 nM against EGFR; 5.5 nM in test [2]; not below 5000 nM at EGFR wild type (EGFR WT).
Consider `Cc1cc(Nc2ncnc3cnc(N4CC(O)(C(F)F)C4)nc23)ccc1Oc1ccc2c(c1)ncn2C` [Example 160, 3-(difluoromethyl)-1-(8-((3-methyl-4-((1-methyl-1H-benzo[d]imidazol-5-yl)oxy)phenyl)amino)pyrimido[5,4-d]pyrimidin-2-yl)azetidin-3-ol hydrochloride], for which the IC50 is 20.3 nM in test [1] (Assay 1 IC50 (nM)); 67.2 nM against ErbB2 WT; 6760 nM against EGFR; 42.8 nM in test [2]; not below 5000 nM at EGFR wild type (EGFR WT).
On to `Cc1cc(Nc2ncnc3cnc(N(C)CC(O)C(F)(F)F)nc23)ccc1Oc1ccc2c(c1)ncn2C` (stereo not drawn) [Example 188, 1,1,1-trifluoro-3-(methyl(8-((3-methyl-4-((1-methyl-1H-benzo[d]imidazol-5-yl)oxy)phenyl)amino)pyrimido[5,4-d]pyrimidin-2-yl)amino)propan-2-ol], for which the IC50 is 27.5 nM in test [1] (read-out: Assay 1 IC50); 27.1 nM at ErbB2 WT; not below 10000 nM against EGFR; 20.5 nM in test [2]; not below 5000 nM against EGFR wild type (EGFR WT).
Turning to `Cc1cc(Nc2ncnc3cnc(N4CC[C@@H](CC#N)C4)nc23)ccc1Oc1ccc2c(c1)ncn2C` [Example 201, (S)-2-(1-(8-((3-methyl-4-((1-methyl-1H-benzo[d]imidazol-5-yl)oxy)phenyl)amino)pyrimido[5,4-d]pyrimidin-2-yl)pyrrolidin-3-yl)acetonitrile], the IC50 was 27.7 nM in test [1] (read-out: Assay 1 IC50); 88.8 nM against ErbB2 WT; not below 10000 nM at EGFR; 9.9 nM in test [2]; not below 5000 nM against EGFR wild type (EGFR WT).
Taken in the same sequence, the figures for `Cc1cc(Nc2ncnc3cnc(N(C)CC(C)(C)C#N)nc23)ccc1Oc1ccc2c(c1)ncn2C` [Example 205, 2,2-dimethyl-3-(methyl(8-((3-methyl-4-((1-methyl-1H-benzo[d]imidazol-5-yl)oxy)phenyl)amino)pyrimido[5,4-d]pyrimidin-2-yl)amino)propanenitrile] were 29.7 nM, 104 nM, not below 10000 nM, 25.6 nM and not below 5000 nM.
As for `Cc1cc(Nc2ncnc3cnc(N4CCC(C)(O)CC4)nc23)c(F)cc1Oc1ccc2c(c1)ncn2C` [Example 215, 1-(8-((2-fluoro-5-methyl-4-((1-methyl-1H-benzo[d]imidazol-5-yl)oxy)phenyl)amino)pyrimido[5,4-d]pyrimidin-2-yl)-4-methylpiperidin-4-ol], the IC50 in test [1] (read-out: Assay 1 IC50) is 28.8 nM; against ErbB2 WT, 120 nM; on EGFR it was not below 10000 nM; in test [2], 37.8 nM; at EGFR wild type (EGFR WT), not below 5000 nM.
In the case of `CON(C)CCNc1ncc2ncnc(Nc3ccc(Oc4ccc5c(c4)ncn5C)c(C)c3)c2n1` [Example 219, N2-(2-(methoxy(methyl)amino)ethyl)-N8-(3-methyl-4-((1-methyl-1H-benzo[d]imidazol-5-yl)oxy)phenyl)pyrimido[5,4-d]pyrimidine-2,8-diamine], the IC50 was 14.8 nM in test [1] (read-out: Assay 1 IC50); 27.6 nM at ErbB2 WT; 2110 nM at EGFR; 6.2 nM in test [2]; not below 5000 nM on EGFR wild type (EGFR WT).
Taken in the same sequence, the figures for `CON1CCC(Nc2ncc3ncnc(Nc4ccc(Oc5ccc6c(c5)ncn6C)c(C)c4)c3n2)C1` (stereo not drawn) [Example 220, N2-(1-methoxpyrrolidin-3-yl)-N8-(3-methyl-4-((1-methyl-1H-benzo[d]imidazol-5-yl)oxy)phenyl)pyrimido[5,4-d]pyrimidine-2,8-diamine] were 9.3 nM, 12.1 nM, 1520 nM, 8 nM and not below 5000 nM.
As to `Cc1cnc(-c2ncc3ncnc(Nc4ccc(Oc5ccc6c(c5)ncn6C)c(C)c4)c3n2)o1` [Example 231], the IC50 was 115 nM in test [1] (read-out: Assay 1 IC50); 274 nM against ErbB2 WT; not below 10000 nM on EGFR; 39.2 nM in test [2]; not below 5000 nM on EGFR wild type (EGFR WT).
Taken in the same sequence, the figures for `CNc1ncc2ncnc(Nc3ccc(Oc4ccc5csnc5c4)c(C)c3)c2n1` [Example 241] were 28.3 nM, 123 nM, 1640 nM, 244 nM and not below 5000 nM.
